Here are results for 27 compounds from patent US6410533B1, “Antibacterial compounds” (Genzyme Corporation, priority 2000, dated 2002).

≈ marks a conversion by molar mass, not a printed value.

The assay concerns Staphylococcus aureus bacteria (ATCC 9604 SV). The assay is described as follows: Minimal inhibitory concentration (MIC), broth microdilution. The class given is cell-based. Particulars: Staphylococcus aureus ATCC 9604 SV, 24 h at 37° C. Here is the method:
Minimal inhibitory concentrations (MICs) for Staphylococcus aureus bacteria (ATCC 9604 SV) were determined by broth microdilution methodology following National Committee for Clinical Laboratory Standards. In the MIC determinations, the compounds were incorporated into Mueller-Hinton broth (Becton Dickinson Microbiology systems, Cockeyville, Md.) at a series of concentrations. After the test organism was grown overnight in TB broth, the broths were adjusted to the turbidity equivalent to 0.05 McFarland standard. The suspensions were diluted twenty-fold into the broth containing the compounds. […] In the IC50 determination, the method was modified to allow the rapid growth of the organisms. The inoculum suspensions were adjusted to 0.1 McFarland standard and then diluted two-fold into the wells containing TB broth and the compounds. After three to five hours incubation at 37° C., the turbidity was measured at 550 nm and inhibitory activity was defined as the concentration of antimicrobial agent that inhibits 50% growth of the organism in the microdilution wells.
A general note: In broth dilution the organism is exposed to a series of concentrations in liquid medium.

Regarding `O=C1C(=Cc2ccco2)C(c2ccccc2)=NN1c1cc(Cl)cc(Cl)c1` [Compound 35], the MIC (commonly the lowest concentration found to suppress growth) was greater than 12.5 µg/mL. The compound `O=C1C(=Cc2cccs2)C(c2ccccc2)=NN1c1cc(Cl)cc(Cl)c1` [Compound 36] registered a minimum inhibitory concentration (MIC) of 12.5 µg/mL (≈ 31.3 µM). For `O=C1C(=Cc2nccs2)C(c2ccccc2)=NN1c1cc(Cl)cc(Cl)c1` [Compound 37] the value was 12.5 µg/mL (≈ 31.2 µM); for `CSc1ccc(C=C2C(=O)N(c3cc(Cl)cc(Cl)c3)N=C2c2ccccc2)cc1` [Compound 38], 6.25 µg/mL (≈ 14.2 µM). For `O=C1C(=Cc2c[nH]c3ccccc23)C(c2ccccc2)=NN1c1cc(Cl)cc(Cl)c1` [Compound 39] the value was greater than 10.0 µg/mL; for `CCOC(=O)N1CCC(=C2C(=O)N(c3cc(Cl)cc(Cl)c3)N=C2c2ccccc2)CC1` [Compound 41], 12.5 µg/mL (≈ 27.3 µM); for `Cn1cc(C=C2C(=O)N(c3cc(Cl)cc(Cl)c3)N=C2c2ccccc2)c2ccccc21` [Compound 43], 0.400 µg/mL (≈ 0.896 µM). `COC(=O)c1ccccc1C=C1C(=O)N(c2cc(Cl)cc(Cl)c2)N=C1c1ccccc1` [Compound 44] showed an MIC of 12.5 µg/mL (≈ 27.7 µM). This MIC is about 31-fold higher than that of the compound before.

`O=C1CC(c2ccccc2)=NN1c1cc(C(F)(F)F)cc(C(F)(F)F)c1` [Compound 47] returned an MIC of 2.33 µg/mL (≈ 6.26 µM). As for `O=C1CC(c2ccccn2)=NN1c1cc(Cl)cc(Cl)c1` [Compound 48], the MIC was greater than 7.65 µg/mL. For `O=C1CC(c2cccnc2)=NN1c1cc(Cl)cc(Cl)c1` [Compound 53] the value was 7.65 µg/mL (≈ 25 µM); for `CCC1=NN(c2cc(Cl)cc(Cl)c2)C(=O)C1=NO` [Compound 60], 7.15 µg/mL (≈ 25 µM). Compound `CCC1=NN(c2cc(Cl)cc(Cl)c2)C(=O)C1=CCCC(=O)O` [Compound 61] returned an MIC of 8.53 µg/mL (≈ 25 µM). For `CCOC(=O)C1=NN(c2cc(Cl)cc(Cl)c2)C(=O)C1=CC1C(=O)Nc2ccccc21` (stereo not drawn) [Compound 62] the value was 12.5 µg/mL (≈ 28.1 µM). Under `CCOC(=O)C1=NN(c2cc(Cl)cc(Cl)c2)C(=O)C1=Cc1ccc(C(=O)O)cc1` [Compound 63] stands 12.5 µg/mL (≈ 28.9 µM); under `CCOC(=O)C1=NN(c2cc(Cl)cc(Cl)c2)C(=O)C1=CC(=O)O` [Compound 64], 6.25 µg/mL (≈ 17.5 µM). Under `CCOC(=O)C1=NN(c2cc(Cl)cc(Cl)c2)C(=O)C1` [Compound 67] stands 3.76 µg/mL (≈ 12.5 µM); under `CCC1=NN(c2cc(Cl)cc(Cl)c2)C(=O)C1=Cc1cccc(C(=O)N2CCN(C)CC2)c1` [Compound 68], 11.8 µg/mL (≈ 25 µM). `CCC1=NN(c2cc(Cl)cc(Cl)c2)C(=O)C1=Cc1cccc(C(=O)N2CCOCC2)c1` [Compound 69] returned an MIC of 11.5 µg/mL (≈ 25.1 µM). For `CCC1=NN(c2cc(Cl)cc(Cl)c2)C(=O)C1=Cc1cccc(C(=O)NCCO)c1` [Compound 70] the value was 5.40 µg/mL (≈ 12.5 µM); for `O=C(NCc1cccc(Cl)c1)Nc1nc(-c2cccc(F)c2)cs1` [Compound 174], 9.05 µg/mL (≈ 25 µM). Under `O=C(NCc1cccc(Cl)c1)Nc1nc(-c2ccc(C(F)(F)F)cc2)cs1` [Compound 176] stands 5.15 µg/mL (≈ 12.5 µM); under `O=C(NCc1cccc(Cl)c1)Nc1nc(-c2ccc(Cl)cc2Cl)cs1` [Compound 177], 5.16 µg/mL (≈ 12.5 µM); under `O=C(NCc1cccc(Cl)c1)Nc1nc(-c2ccc(F)cc2F)cs1` [Compound 178], 9.50 µg/mL (≈ 25 µM). Under `O=C(NCc1cccc(Cl)c1)Nc1nc(-c2ccc(Cl)c(Cl)c2)cs1` [Compound 179] stands 5.16 µg/mL (≈ 12.5 µM); under `Cc1cc(-c2csc(NC(=O)NCc3cccc(Cl)c3)n2)ccc1F` [Compound 180], 9.40 µg/mL (≈ 25 µM); under `O=C(NCc1ccc(Cl)c(Cl)c1)Nc1nc(-c2ccc(Br)cc2)cs1` [Compound 181], 11.4 µg/mL (≈ 24.9 µM).
